# Laboratory results as given in ChEMBL document CHEMBL1151623, “Flavonoids from Brickellia glutinosa” (J Nat Prod, 1984).
# Legend:
# [1] = target: Aldo-keto reductase family 1 member B1 (Homo sapiens) (UniProt P15121); assay: Inhibition of aldose reductase at 1 uM
# [2] = target: Aldo-keto reductase family 1 member B1 (Homo sapiens) (UniProt P15121); assay: Inhibition of aldose reductase at 0.1 uM
Compound,inhibition [1] [%],inhibition [2] [%]
COc1cc2oc(-c3ccc(O)cc3)c(OC)c(=O)c2c(O)c1OC,21,64
COc1cc2oc(-c3ccc(O)c(O)c3)c(OC)c(=O)c2c(O)c1O,71,97
COc1ccc(-c2oc3cc(O[C@@H]4O[C@H](CO)[C@@H](O)[C@H](O)[C@H]4O)c(OC)c(O)c3c(=O)c2OC)cc1O,0,47
C[C@@H]1O[C@@H](Oc2c(-c3ccc(O)c(O)c3)oc3cc(O)cc(O)c3c2=O)[C@H](O)[C@H](O)[C@H]1O,82,91
COc1cc2oc(-c3ccc(O)c(O)c3)c(OC)c(=O)c2c(O)c1OC,63,88
COc1c(-c2ccc(O)c(O)c2)oc2cc(O)cc(O)c2c1=O,78,95
O=C1NC(=O)c2cccc3cccc1c23,44,92
